The values below come from US10561705B2, “Agonist peptide for adiponectin receptor” (priority 2016, dated 2020).

The target in assay [1] is T1, adiponectin receptor ADIPOR1 (Homo sapiens, UniProt Q96A54).
T1 construct: Flag tag (N); made in house; host or cells: SF9 insect cells (baculovirus, pFASTbac1)
Briefly: Kd (uM). An excerpt:
Table printed on a drawing sheet, FIG. 1
Head of the field: Kd (uM)
Where the first naming reader finds the target: description_of_the_figure: dissociation constant values of synthetic peptides (3 peptides from 3rd round, 4 peptides from 4th round) from the adiponectin receptor ADIPOR1

Assay [2] concerns the target T2, adiponectin receptor 1 (ADIPOR1) (Homo sapiens, UniProt Q96A54).
T2 construct: Flag tag (N); made in house; host or cells: SF9 insect cells (baculovirus, pFASTbac1)
T2 sequence (Q96A54 89-375): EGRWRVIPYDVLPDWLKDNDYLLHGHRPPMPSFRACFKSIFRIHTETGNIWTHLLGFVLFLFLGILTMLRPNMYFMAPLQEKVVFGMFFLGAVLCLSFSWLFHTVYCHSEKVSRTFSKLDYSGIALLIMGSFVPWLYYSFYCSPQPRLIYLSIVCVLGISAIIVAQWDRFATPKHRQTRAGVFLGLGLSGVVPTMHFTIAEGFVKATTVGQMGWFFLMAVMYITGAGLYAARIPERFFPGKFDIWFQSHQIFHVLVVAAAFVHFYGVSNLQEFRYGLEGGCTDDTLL
Briefly: Surface plasmon resonance (SPR) binding of peptide to immobilized recombinant ADIPOR1. The conditions noted are these: ADIPOR1 amine-coupled to CM5 chip, running buffer pH 7.4, read-out: dissociation constant (Kd) from ADIPOR1. The text has this:
The ADIPOR1 protein sequence used was the same as that used for the ADIPOR1 structure analysis, in which 88 amino acids at the N-terminal have been removed. The gene capable of producing the protein sequence was synthesized by codon optimization (IDT). At the time, a BamHI restriction enzyme site, a Flag tag and a TEV protease recognition sequence (ENLYFQG; SEQ ID NO: 11) were inserted at the 5′ end and an EcoRI restriction enzyme site was inserted at the 3′ end in order to facilitate cloning and purify the expressed protein. The obtained gene was inserted into the pFASTbac1 vector required for baculovirus production to perform cloning. The cloned vector was transfected into DH10 bac (Invitrogen) to obtain a bacmid comprising the ADIPOR1 gene through recombination. In order to produce baculovirus, the obtained bacmid was transfected into SF9 cells (5×10^4 cells) using Transfectine (Qiagen), and the baculovirus secreted in a medium was collected after 5 days. Then, a large amount of baculovirus was produced through amplification. The obtained baculovirus was inoculated into SF9 cells (5×10^6 cells/ml) cultured in a 1 L SFM900 medium, and protein was expressed at a temperature of 27° C. for 3 days. The SF9 cells expressing recombinant ADIPOR1 were obtained through centrifugation. The obtained cell pellets were aliquoted and stored at −80° C., and used in protein purification as needed to minimize the disadvantages of membrane proteins, which have the possibility of inactivation due to storage after purification. The ADIPOR1, which is a membrane protein expressed on a cell membrane, was solubilized using a detergent (1% DDM) for purification. The dissolved sample was reacted with anti-Flag antibody bead (Sigma) for 1 hour in ice. Then, ADIPOR1 bound to the anti-Flag antibody bead was eluted with Flag peptide. The primarily purified ADIPOR1 was subjected to size exclusion chromatography (Supderdex200, GE healthcare) to obtain only monomeric, proteins. […]
In order to analyze the binding force between peptide and ADIPOR1, a purified recombinant ADIPOR1 (A88) was bound to a CM5 chip with 3000 RU or higher through amine coupling. […] The affinity value was calculated using the affinity fitting or kinetics fitting method. […] The peptide concentrations were calculated by measuring the […] and A280 absorbance of each peptide.
With reference to FIGS. 3 and 4, surface plasmon resonance (SPR) experiments were performed in the present invention to measure the dissociation constant between the agonist peptide and the adiponectin receptor, particularly adiponectin receptor 1 (ADIPOR1). First, an expressed and purified adiponectin receptor ADIPOR1 was immobilized and its dissociation constant from candidate peptides was measured over a total of 4 rounds.

Assay [3] has as its system AMPK phosphorylation in C2C12 cell line. Briefly: Western blotting of AMPK phosphorylation in differentiated C2C12 myotubes. The format is cell-based. The conditions noted are these: 10 min treatment, tested at 20, 4 and 0.8 uM. As to the method:
(§1) C2C12 and HepG2 cells were purchased from ATCC. Before use, they were cultured in a DMEM (Hyclone) medium supplemented with 10% FBS (Hyclone) and 1% penicillin/streptomycin in an incubator at 37° C. in a 5% CO2 environment.
C2C12 cells were plated in 12 wells. […] Then, the medium was replaced with a differentiation medium in which DMEM is supplemented with 2.5% horse serum and 1% penicillin/streptomycin. Thereafter, differentiation was performed for 5-7 days, replacing the medium with a new differentiation medium every day. The thus-obtained product was used for experiments.
Based on the prior finding, after optimization of the number of the cells to be used for experiment, HepG2 was starved for 5 hours, recovered, and treated with peptide for 30 minutes, and C2C12 was starved for 24 hours and treated with peptide for 10 minutes. The treated cell samples were washed once with cold PBS and lysed for 15 minutes with a RiPA buffer containing a protease inhibitor and a phosphatase inhibitor. After 15 minutes, centrifugation was carried out at 14000 rpm for 5 minutes to collect only proteins. After quantification, 4× sample buffer and 2-ME were added to prepare a sample for western blotting. The western blotting was performed using a conventional western blotting technique. […]
For orientation: A western blot detects proteins with antibodies after separation by electrophoresis.

Assay [4] has as its system AMPK phosphorylation in HepG2 cell line. Briefly: Western blotting of AMPK phosphorylation in HepG2 cell line. It is filed as cell-based. The conditions noted are these: HepG2, 5 h starvation, 30 min treatment; tested at 20, 4 and 0.8 uM. The protocol: as §1
Based on the prior finding, after optimization of the number of the cells to be used for experiment, HepG2 was starved for 5 hours, recovered, and treated with peptide for 30 minutes, and C2C12 was starved for 24 hours and treated with peptide for 10 minutes. The treated cell samples were washed once with cold PBS and lysed for 15 minutes with a RiPA buffer containing a protease inhibitor and a phosphatase inhibitor. After 15 minutes, centrifugation was carried out at 14000 rpm for 5 minutes to collect only proteins. After quantification, 4× sample buffer and 2-ME were added to prepare a sample for western blotting. The western blotting was performed using a conventional western blotting technique. The antibodies of AMPK, p-AMPK, p-AKT, p-ACC and GAPDH were diluted to 1:1000 or 1:2000 depending on the type thereof and imaging was performed with a LAS-4000 instrument.
HepG2 cell line was plated on a 12-well plate at a concentration of 8*10^5 cells/well on the day before the experiment. […]

Square brackets hold non-standard residues; d marks the D form. Peptide text beside a SMILES is read from it. Nva = CCC[C@H](N)C(=O)O

T1 sequence (Q96A54 whole entry, looked up): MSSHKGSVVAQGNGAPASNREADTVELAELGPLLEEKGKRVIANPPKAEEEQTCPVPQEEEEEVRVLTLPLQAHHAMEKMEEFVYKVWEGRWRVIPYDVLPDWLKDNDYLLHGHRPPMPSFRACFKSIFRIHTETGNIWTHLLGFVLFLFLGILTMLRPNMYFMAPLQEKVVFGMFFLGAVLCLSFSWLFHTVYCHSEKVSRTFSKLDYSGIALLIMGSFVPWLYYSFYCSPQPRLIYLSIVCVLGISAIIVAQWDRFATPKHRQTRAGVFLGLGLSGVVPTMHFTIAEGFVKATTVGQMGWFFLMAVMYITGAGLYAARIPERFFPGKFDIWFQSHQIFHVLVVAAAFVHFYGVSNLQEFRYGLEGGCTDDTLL

In general, Kd refers to the concentration at which binding is half-saturated. As to `CC[C@H](C)[C@H](NC(=O)[C@H](CC(N)=O)NC(=O)[C@@H]1CCCN1C(=O)[C@H](Cc1c[nH]cn1)NC(=O)[C@H](Cc1ccc(O)cc1)NC(=O)[C@H](C)NC(=O)[C@H](Cc1ccccc1)NC(=O)[C@H](Cc1ccc(O)cc1)NC(=O)[C@@H](N)Cc1ccc(O)cc1)C(=O)N1CCC[C@H]1C(=O)NCC(=O)N[C@@H](CC(C)C)C(=O)N[C@@H](Cc1ccc(O)cc1)C(=O)N[C@@H](Cc1ccc(O)cc1)C(=O)N[C@@H](Cc1ccccc1)C(=O)O` [3-1, YYFAYHPNIPGLYYF (SEQ ID NO: 1 where Xaa1 and Xaa13 each is tyrosine)] (H-YYFAYHPNIPGLYYF-OH; N-terminus and C-terminus assumed), the affinity in assay [1], expressed as Kd, was 16 µM.
The same measure, in the same setting: next, `CC[C@H](C)[C@H](NC(=O)[C@H](CC(N)=O)NC(=O)[C@@H]1CCCN1C(=O)[C@H](Cc1c[nH]cn1)NC(=O)[C@H](Cc1ccc(O)cc1)NC(=O)[C@H](C)NC(=O)[C@H](Cc1ccccc1)NC(=O)[C@H](CO)NC(=O)[C@@H](N)Cc1ccc(O)cc1)C(=O)N1CCC[C@H]1C(=O)NCC(=O)N[C@@H](CC(C)C)C(=O)N[C@@H](Cc1ccc(O)cc1)C(=O)N[C@@H](Cc1ccc(O)cc1)C(=O)N[C@@H](Cc1ccccc1)C(=O)O` [4-5, YSFAYHPNIPGLYYF (SEQ ID NO: 7)] (H-YSFAYHPNIPGLYYF-OH; N-terminus and C-terminus assumed): 24.5 µM.
`CCC[C@H](NC(=O)[C@@H]1CCCN1C(=O)[C@@H](NC(=O)[C@H](N)CC(N)=O)[C@@H](C)CC)C(=O)N[C@@H](CC(C)C)C(=O)N[C@@H](Cc1ccc(O)cc1)C(=O)N[C@H](CO)C(=O)N[C@@H](Cc1ccccc1)C(=O)N[C@@H](C)C(=O)N[C@H](CO)C(N)=O` [ADP355, H-DAsn-Ile-Pro-Nva-Leu-Tyr-DSer-Phe-Ala-DSer-NH2] (H-[dN]IP[Nva]LY[dS]FA[dS]-NH2): the Kd in assay [2] is no less than 100 µM. The “concentration from which AMPK was phosphorylated” value in assay [3] was determined as 4 µM; in assay [4] it was 20 µM.
In the case of `CC[C@H](C)[C@H](NC(=O)[C@H](CC(N)=O)NC(=O)[C@@H]1CCCN1C(=O)[C@H](Cc1c[nH]cn1)NC(=O)[C@H](Cc1ccc(O)cc1)NC(=O)[C@H](C)NC(=O)[C@H](Cc1ccccc1)NC(=O)[C@H](Cc1ccc(O)cc1)NC(=O)[C@@H](N)Cc1ccc(O)cc1)C(=O)N1CCC[C@H]1C(=O)NCC(=O)N[C@@H](CC(C)C)C(=O)N[C@@H](Cc1ccc(O)cc1)C(=O)N[C@@H](Cc1ccc(O)cc1)C(=O)N[C@@H](Cc1ccccc1)C(=O)O` [peptide 3-1, Tyr-Tyr-Phe-Ala-Tyr-His-Pro-Asn-Ile-Pro-Gly-Leu-Tyr-Tyr-Phe] (H-YYFAYHPNIPGLYYF-OH), in assay [2], the equilibrium dissociation constant (Kd) is no more than 16 µM.
The same measure, in the same setting: next, `CC[C@H](C)[C@H](NC(=O)[C@H](CC(N)=O)NC(=O)[C@@H]1CCCN1C(=O)[C@H](Cc1c[nH]cn1)NC(=O)[C@H](Cc1ccc(O)cc1)NC(=O)[C@H](C)NC(=O)[C@H](Cc1ccccc1)NC(=O)[C@H](Cc1ccc(O)cc1)NC(=O)[C@@H](N)Cc1c[nH]c2ccccc12)C(=O)N1CCC[C@H]1C(=O)NCC(=O)N[C@@H](CC(C)C)C(=O)N[C@@H](Cc1c[nH]c2ccccc12)C(=O)N[C@@H](Cc1ccc(O)cc1)C(=O)N[C@@H](Cc1ccccc1)C(=O)O` [peptide 4-3, Trp-Tyr-Phe-Ala-Tyr-His-Pro-Asn-Ile-Pro-Gly-Leu-Trp-Tyr-Phe] (H-WYFAYHPNIPGLWYF-OH): 6 to 10 µM.
Take `CC[C@H](C)[C@H](NC(=O)[C@H](CC(N)=O)NC(=O)[C@@H]1CCCN1C(=O)[C@H](Cc1c[nH]cn1)NC(=O)[C@H](Cc1ccc(O)cc1)NC(=O)[C@H](C)NC(=O)[C@H](Cc1ccccc1)NC(=O)[C@H](Cc1ccc(O)cc1)NC(=O)[C@@H](N)Cc1ccccc1)C(=O)N1CCC[C@H]1C(=O)NCC(=O)N[C@@H](CC(C)C)C(=O)N[C@@H](Cc1ccccc1)C(=O)N[C@@H](Cc1ccc(O)cc1)C(=O)N[C@@H](Cc1ccccc1)C(=O)O` [peptide 4-4, Phe-Tyr-Phe-Ala-Tyr-His-Pro-Asn-Ile-Pro-Gly-Leu-Phe-Tyr-Phe] (H-FYFAYHPNIPGLFYF-OH): the Kd in assay [2] was in the range of 2 to 4.3 µM.
